Source: US20080090780A1, “Storage stable azadirachtin pesticide formulation” (PBI/GORDON CORPORATION, priority 2006, published 2008)
Like-named read-outs stand apart in the source and are kept apart here.

Tests used:
[1] = format: physicochemical; details: for loss of AZA A: AZA alone without incorporation of a PYR (Table 2); for % Decomposition of AZA A and PYR: JeffSol AG-1555, Triton X-100
Source text: This invention relates to a storage stable, efficacious pesticide formulation dilutable by the user that contains azadirachtin made up of azadirachtin A and azadirachtin B, a pyrethrin or pyrethroid, a solvent, and an emulsifier. The pyrethrin or pyrethroid complexes with and minimizes decomposition of the azadirachtin A. An amount of the pyrethrin or pyrethroid is incorporated to form a complex with the azadirachtin A on opposite sides of the molecular structure thereof. […] Preferably, an aprotic heterocyclic or mono, di-, or polycyclic aromatic solvent is provided having C2-C25 carbon atoms and that is compatible with the azadirachtin A and pyrethrin or pyrethroid. In addition, a non-ionic emulsifier is preferably included in the formulation.
When a PYR was added to AZA A, the decomposition pathway of AZA A was stabilized, as shown by Table 2.
FIG. 1 is a plot of the percent AZA A decomposition on the Y-axis, as compared with the mole ratio of bifenthrin/AZA A on the X-axis, under an accelerated aging test of 30 days at 40° C. The loss of AZA A decreased as the mole ratio of PYR to AZA A approached 2:1, where the PYR was present in an amount to form a complex with the AZA A on opposite sides of the molecular structure thereof and sufficient to prevent further decomposition of the AZA A.
FIG. 3 compares the percent of AZA A decomposition on the Y-axis with the mole ratio of zeta cypermethrin to AZA A on the X-axis, also under an accelerated aging test of 30 days at 40° C.

[2] = Azadirachtin stability tests in seed oil carrier (soybean oil / Tween 85 containing 5% water); format: physicochemical; details: Soybean Oil (50% Seed Oil/50% Tween 85 containing 5% water), 40° C., 32 Days
Source text: AZA plus PYRs have been studied in conventional oil systems, such as soybean oil, canola oil, methylated soybean oil, epoxidized soybean oil, rape seed oil, and olive oil, all of which contained an emulsifier having as much as 5% of water. None of these oils in combination with the PYR stabilized the AZA A in the formulation, largely because of the presence of moisture in the emulsifier. When AZA is combined with PYR and the types of solvents and emulsifiers disclosed herein, the AZA A of the formulation is stabilized. Table 9 records test results of AZA+soybean oil as compared with AZA+PYR+soybean oil.

potato aphids = experiment: Greenhouse tests on live potato aphids on tomatoes; format: in vivo; details: Azadirachtin 0.0008 lbs/gal, bifenthrin 0.005 lbs/gal, combination as labelled
[3] = Azadirachtin A/B 0.50% + Bifenthrin 2.01%, 1 Month/40° C.
[4] = Azadirachtin A/B 0.50% + Bifenthrin 2.01%, 1 Month/Ambient
[5] = Azadirachtin A/B 1.50% + 1.50% second active, 1 Month/40° C.
[6] = Azadirachtin A/B 1.50% + 1.50% second active, 1 Month/Ambient
[7] = Azadirachtin A/B 1.75% + Bifenthrin 1.00%, 1 Month/40° C.
[8] = Azadirachtin A/B 2.00% + Bifenthrin 0.50%, 1 Month/40° C.

## azadirachtin [Azadirachtin A/B]
[1]
  loss of AZA A: 12.64%
[1]; [3]
  % Decomposition of AZA A and PYR: −4.30%
[1]; [4]
  % Decomposition of AZA A and PYR: −1.03%
[1]; [5]
  % Decomposition of AZA A and PYR: −4.20%
[1]; [6]
  % Decomposition of AZA A and PYR: −0.14%
[1]; [7]
  % Decomposition of AZA A and PYR: −7.37%
[1]; [8]
  % Decomposition of AZA A and PYR: −7.61%
[1]; Azadirachtin A/B only 3.01% AI, 1 Month/40° C.
  % Decomposition of AZA A and PYR: −12.64%
[2]; AZA A/B 0.50% + Bifenthrin 2.00%
  AZA A Stability in Formulation: −54.27%
[2]; AZA A/B 0.50% + Permethrin 2.00%
  AZA A Stability in Formulation: −52.62%
[2]; AZA A/B 0.50% + Z-Cypermethrin 2.00%
  AZA A Stability in Formulation: −48.25%
[2]; AZA A/B 3.00% alone
  AZA A Stability in Formulation: −27.02%
Potato aphids; 0 DAT1
  Live potato aphids on tomatoes (aphid mean numbers): 338 a
Potato aphids; 0 DAT2
  Live potato aphids on tomatoes (aphid mean numbers): 11 c
Potato aphids; 3 DAT1
  Live potato aphids on tomatoes (aphid mean numbers): 120 b
Potato aphids; 3 DAT2
  Live potato aphids on tomatoes (aphid mean numbers): 3 c
Potato aphids; 7 DAT1
  Live potato aphids on tomatoes (aphid mean numbers): 18 c
Potato aphids; 7 DAT2
  Live potato aphids on tomatoes (aphid mean numbers): 1 c

## C/C=C(\C)C(=O)O[C@H]1C[C@@H](OC(C)=O)[C@@]2(C(=O)OC)CO[C@@H]3C2[C@]12CO[C@@](O)(C(=O)OC)[C@H]2[C@](C)(C12OC1(C)C1C[C@H]2O[C@@H]2OC=CC12O)[C@@H]3O (stereo partly drawn) [AZA A, azadirachtin A]
[1]; 1:1 mole ratio zeta cypermethrin to AZA A, accelerated aging test of 30 days at 40° C., FIG. 3
  loss of AZA A (percent of AZA A decomposition): 1%
[1]
  loss of AZA A: more than 12%

## Cc1c(COC(=O)[C@@H]2[C@H](/C=C(\Cl)C(F)(F)F)C2(C)C)cccc1-c1ccccc1 (racemic) [Bifenthrin, bifenthrin]
[1]; [3]
  % Decomposition of AZA A and PYR: −2.67%
[1]; [4]
  % Decomposition of AZA A and PYR: −2.42%
[1]; [5]
  % Decomposition of AZA A and PYR: −2.96%
[1]; [6]
  % Decomposition of AZA A and PYR: −2.82%
[1]; [7]
  % Decomposition of AZA A and PYR: −2.21%
[1]; [8]
  % Decomposition of AZA A and PYR: −0.82%
[1]; Bifenthrin only 3.01% AI, 1 Month/40° C.
  % Decomposition of AZA A and PYR: −2.54%
Potato aphids; 0 DAT1
  Live potato aphids on tomatoes (aphid mean numbers): 357 a
Potato aphids; 0 DAT2
  Live potato aphids on tomatoes (aphid mean numbers): 162 b
Potato aphids; 3 DAT1
  Live potato aphids on tomatoes (aphid mean numbers): 131 b
Potato aphids; 3 DAT2
  Live potato aphids on tomatoes (aphid mean numbers): 89 b
Potato aphids; 7 DAT1
  Live potato aphids on tomatoes (aphid mean numbers): 179 b
Potato aphids; 7 DAT2
  Live potato aphids on tomatoes (aphid mean numbers): 64 b
